Test results taken from patent US7265120B2, “Pyrazine derivatives and pharmaceutical use thereof” (Astellas Pharma Inc., priority 2004, dated 2007).

| SMILES | melting point [°C] |
| --- | --- |
| CC(C)n1nc(-c2nc(NCCN3CCOCC3)c(N)nc2-c2ccccc2)ccc1=O [Example 104, 6-(5-amino-6-{[2-(4-morpholinyl)ethyl]amino}-3-phenyl-2-pyrazinyl)-2-isopropyl-3(2H)-pyridazinone] | 230 to 232.5 |
| CC(C)n1nc(-c2nc(C#N)c(N)nc2-c2ccccc2)ccc1=O [Example 6, 3-amino-6-(1-isopropyl-6-oxo-1,6-dihydro-3-pyridazinyl)-5-phenyl-2-pyrazinecarbonitrile] | 231 to 233 |
| CC(C)n1nc(-c2nc(NCC3CCCCC3)c(N)nc2-c2ccccc2)ccc1=O [Example 105, 6-{5-amino-6-[(cyclohexylmethyl)amino]-3-phenyl-2-pyrazinyl}-2-isopropyl-3(2H)-pyridazinone] | 219 to 221 |
| COc1ccc(CNc2nc(-c3ccccc3Br)c(-c3ccc(=O)n(C(C)C)n3)nc2C#N)cc1 [Example 196, 5-(2-bromophenyl)-6-(1-isopropyl-6-oxo-1,6-dihydro-3-pyridazinyl)-3-[(4-methoxybenzyl)amino]-2-pyrazinecarbonitrile] | 76 to 78 |
| COc1ccc(CNc2cnc(-c3ccccc3)c(-c3ccc(=O)n(C(C)C)n3)n2)cc1 [Example 49, 2-isopropyl-6-{6-[(4-methoxybenzyl)amino]-3-phenyl-2-pyrazinyl}-3(2H)-pyridazinone] | 173 to 174 |
| CC(C)n1nc(-c2nc(OCCCCOCc3ccccc3)c(N)nc2-c2ccccc2)ccc1=O [Example 169, 6-{5-amino-6-[4-(benzyloxy)butoxy]-3-phenyl-2-pyrazinyl}-2-isopropyl-3(2H)-pyridazinone] | 96.5 to 97.5 |
| CC(C)n1nc(-c2nc(-c3cnn(C)c3)c(N)nc2-c2ccccc2)ccc1=O [Example 93, 6-[5-amino-6-(1-methyl-1H-pyrazol-4-yl)-3-phenyl-2-pyrazinyl]-2-isopropyl-3(2H)-pyridazinone] | 201 to 203 |
| CC(C)n1nc(-c2nc(NCCN3CCCCC3)c(N)nc2-c2ccccc2)ccc1=O [Example 103, 6-(5-amino-3-phenyl-6-{[2-(1-piperidinyl)ethyl]amino}-2-pyrazinyl)-2-isopropyl-3(2H)-pyridazinone] | 204.5 to 207 |
| CC(C)n1nc(-c2nc(C(N)=S)c(N)nc2-c2ccccc2)ccc1=O [Example 26, 3-amino-6-(1-isopropyl-6-oxo-1,6-dihydro-3-pyridazinyl)-5-phenyl-2-pyrazinecarbothioamide] | > 250 |
| COCCNc1nc(-c2ccc(=O)n(C)n2)c(-c2ccccc2)nc1N [Example 120, 6-{5-amino-6-[(2-methoxyethyl)amino]-3-phenyl-2-pyrazinyl}-2-methyl-3(2H)-pyridazinone] | 231 to 232.5 |
| CC(C)n1nc(-c2nc(C(N)=O)c(N)nc2-c2ccccc2Br)ccc1=O [Example 190, 3-amino-5-(2-bromophenyl)-6-(1-isopropyl-6-oxo-1,6-dihydro-3-pyridazinyl)-2-pyrazinecarboxamide] | 132 to 135 |
| CC(C)n1nc(-c2nc(NC3CCN(Cc4ccccc4)C3)c(N)nc2-c2ccccc2)ccc1=O (centres unmarked) [Example 138, 6-{5-amino-6-[(1-benzyl-3-pyrrolidinyl)amino]-3-phenyl-2-pyrazinyl)-2-isopropyl-3(2H)-pyridazinone] | 86 to 91 |
| CC(C)n1nc(-c2nc(OCCN(C)C)c(N)nc2-c2ccccc2)ccc1=O [Example 170, 6-{5-amino-6-[2-(dimethylamino)ethoxy]-3-phenyl-2-pyrazinyl}-2-isopropyl-3(2H)-pyridazinone] | 136 to 137.5 |
| COc1ccc(CN(Cc2ccc(OC)cc2)c2nc(-c3ccccc3)c(-c3ccc(=O)n(C(C)C)n3)nc2C(N)=O)cc1 [Example 52, 3-[bis(4-methoxybenzyl)amino]-6-(1-isopropyl-6-oxo-1,6-dihydro-3-pyridazinyl)-5-phenyl-2-pyrazinecarboxamide] | 120 to 122.5 |
| Cn1nc(-c2nc(-n3cncn3)c(N)nc2-c2ccccc2)ccc1=O [Example 155, 6-[5-amino-3-phenyl-6-(1H-1,2,4-triazol-1-yl)-2-pyrazinyl]-2-methyl-3(2H)-pyridazinone] | > 250 |
| CC(C)n1nc(-c2nc(C#N)c(C#N)nc2-c2ccccc2)ccc1=O [Example 4, 5-(1-isopropyl-6-oxo-1,6-dihydro-3-pyridazinyl)-6-phenyl-2,3-pyrazinedicarbonitrile] | 201 to 202 |
| COc1ccc(CNc2nc(-c3ccc(=O)n(C(C)C)n3)c(-c3ccccc3)nc2N)cc1 [Example 97, 6-{5-amino-6-[(4-methoxybenzyl)amino]-3-phenyl-2-pyrazinyl}-2-isopropyl-3(2H)-pyridazinone] | 188.5 to 191.5 |
| CC(C)n1nc(-c2nc(C(N)=O)c(N)nc2-c2cccs2)ccc1=O [Example 191, 3-amino-6-(1-isopropyl-6-oxo-1,6-dihydro-3-pyridazinyl)-5-(2-thienyl)-2-pyrazinecarboxamide] | 238 to 240 |
| CC(C)n1nc(-c2nc(NCc3ccccn3)c(N)nc2-c2ccccc2)ccc1=O [Example 98, 6-{5-amino-3-phenyl-6-[(2-pyridylmethyl)amino]-2-pyrazinyl}-2-isopropyl-3(2H)-pyridazinone] | 192 to 194 |
| CC(C)n1nc(-c2nc(Nc3ccccc3)c(N)nc2-c2ccccc2)ccc1=O [Example 139, 6-(5-amino-6-anilino-3-phenyl-2-pyrazinyl)-2-isopropyl-3(2H)-pyridazinone] | > 250 |
| CC(C)n1nc(-c2nc(Sc3ccc(F)cc3)c(N)nc2-c2ccccc2)ccc1=O [Example 159, 6-{5-amino-6-[(4-fluorophenyl)thio]-3-phenyl-2-pyrazinyl}-2-isopropyl-3(2H)-pyridazinone] | 148 to 150 |
| CC(C)n1nc(-c2nc(-n3cncn3)c(N)nc2-c2ccccc2)ccc1=O [Example 151, 6-[5-amino-3-phenyl-6-(1H-1,2,4-triazol-1-yl)-2-pyrazinyl]-2-isopropyl-3(2H)-pyridazinone] | 240 to 241.5 |
| CC(C)n1nc(-c2nc(C#N)c(N=CN(C)C)nc2-c2ccccc2Br)ccc1=O [Example 188, N′-[6-(2-bromophenyl)-3-cyano-5-(1-isopropyl-6-oxo-1,6-dihydro-3-pyridazinyl)-2-pyrazinyl]-N,N-dimethylimidoformamide] | 197 to 199 |
| Cc1csc(-c2nc(-c3ccc(=O)n(C(C)C)n3)c(-c3ccccc3)nc2N)n1 [Example 27, 6-[5-amino-6-(4-methyl-thiazol-2-yl)-3-phenyl-2-pyrazinyl]-2-isopropyl-3(2H)-pyridazinone] | 238 to 240 |
| Cn1nc(-c2nc(OCc3ccccc3)c(N)nc2-c2ccccc2)ccc1=O [Example 182, 6-[5-amino-6-(benzyloxy)-3-phenyl-2-pyrazinyl]-2-methyl-3(2H)-pyridazinone] | 185 to 187 |
| Cn1nc(-c2nc(N(CCO)Cc3ccccc3)c(N)nc2-c2ccccc2)ccc1=O [Example 143, 6-{5-amino-6-[benzyl(2-hydroxyethyl)amino]-3-phenyl-2-pyrazinyl}-2-methyl-3(2H)-pyridazinone] | 210 to 212 |
